Measurements taken from ChEMBL document CHEMBL1150921, “Organochlorine compounds from a terrestrial higher plant: structures and origin of chlorinated orcinol derivatives from diseased bulbs of Lilium maximowiczii” (1998).
Active and inactive are the calls of the source. The rule behind the calls is not given here.

Assays:
Bipolaris leersiae [1] = experiment: Antifungal activity against Bipolaris leersiae assessed as inhibition of conidial germination at 50 ppm after 24 hrs by microscopy; assay type: functional, organism-based
Bipolaris leersiae [2] = experiment: Antifungal activity against Bipolaris leersiae assessed as inhibition of conidial germination at 300 ppm after 24 hrs by microscopy; assay type: functional
Bipolaris leersiae [3] = experiment: Antifungal activity against Bipolaris leersiae assessed as inhibition of conidial germination at 500 ppm after 24 hrs by microscopy; assay type: functional
Bipolaris leersiae [4] = experiment: Antifungal activity against Bipolaris leersiae assessed as inhibition of conidial germination at 100 ppm after 24 hrs by microscopy; assay type: functional
Bipolaris leersiae [5] = experiment: Antifungal activity against Bipolaris leersiae assessed as inhibition of conidial germination at 1000 ppm after 24 hrs by microscopy; assay type: functional, organism-based
Bipolaris leersiae [6] = experiment: Antifungal activity against Bipolaris leersiae assessed as inhibition of conidial germination at 10 ppm after 24 hrs by microscopy; assay type: functional

Row | Compound | Activity (Bipolaris leersiae [1]) | Activity (Bipolaris leersiae [2]) | Activity (Bipolaris leersiae [3]) | Activity (Bipolaris leersiae [4]) | inhibition at 300 ppm (Bipolaris leersiae [2]) [%] | inhibition at 500 ppm (Bipolaris leersiae [3]) [%] | Activity (Bipolaris leersiae [5]) | inhibition at 100 ppm (Bipolaris leersiae [4]) [%] | inhibition at 10 ppm (Bipolaris leersiae [6]) [%] | Activity (Bipolaris leersiae [6])
1 | COc1c(O)c(C)c(Cl)c(OC)c1Cl | Active | Active | Active | Active | – | – | – | – | – | –
2 | Cc1cc(O)cc(O)c1 [ORCINOL] | – | – | – | – | 30 | 80 | Active | 30 | – | –
3 | COc1cc(OC)c(Cl)c(C)c1Cl | – | – | – | inactive | – | – | – | – | – | –
4 | COc1c(O)c(C)c(Cl)c(O)c1Cl | Active | Active | Active | Active | – | – | – | – | 80 | –
5 | COc1c(Cl)c(C)c(Cl)c(O)c1Cl | Active | Active | Active | Active | – | – | – | – | – | Active
6 | Cc1cc(O)cc(O)c1Cl | – | Active | Active | – | – | – | – | 80 | – | –
7 | Cc1cc(O)c(Cl)c(O)c1 | – | Active | Active | – | – | – | – | 80 | – | –
